# Source: ChEMBL document CHEMBL1201862, “PubChem BioAssay data set” (2004)
# Calls of active or inactive are those of the source.
# Assays:
# Leucine aminopeptidase = target: T1, Leucine aminopeptidase (Plasmodium falciparum 3D7, UniProt Q8IL11); test: P. falciparum M17LAP inhibitors, primary screen, biochemical, fluorogenic H-Leu-NHMec substrate, 1536-well (AID 1619); format: functional
# T1 sequence (Q8IL11 whole entry): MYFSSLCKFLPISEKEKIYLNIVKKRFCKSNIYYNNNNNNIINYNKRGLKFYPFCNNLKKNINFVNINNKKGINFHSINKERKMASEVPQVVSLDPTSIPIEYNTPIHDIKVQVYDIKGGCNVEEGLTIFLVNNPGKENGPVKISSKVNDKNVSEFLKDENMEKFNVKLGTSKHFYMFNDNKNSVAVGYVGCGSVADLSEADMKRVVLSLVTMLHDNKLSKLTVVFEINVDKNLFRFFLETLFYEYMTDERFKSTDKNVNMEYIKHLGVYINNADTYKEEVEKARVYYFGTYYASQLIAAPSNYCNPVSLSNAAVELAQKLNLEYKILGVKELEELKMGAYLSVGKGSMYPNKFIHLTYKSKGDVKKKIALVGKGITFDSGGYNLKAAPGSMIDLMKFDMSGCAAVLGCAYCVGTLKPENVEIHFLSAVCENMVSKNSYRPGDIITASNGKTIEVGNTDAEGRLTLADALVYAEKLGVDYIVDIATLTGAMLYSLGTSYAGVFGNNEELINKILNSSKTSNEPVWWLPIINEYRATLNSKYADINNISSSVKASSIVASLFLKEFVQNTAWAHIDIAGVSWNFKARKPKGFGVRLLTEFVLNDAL
# [1] = target: Luciferin 4-monooxygenase (Photinus pyralis, UniProt P08659); test: Counter Screen for Luciferase-based Assay Positives. [Related pubchem assays: 620, 618, 411 ]
# Luciferin 4-monooxygenase, sequence (P08659 whole entry): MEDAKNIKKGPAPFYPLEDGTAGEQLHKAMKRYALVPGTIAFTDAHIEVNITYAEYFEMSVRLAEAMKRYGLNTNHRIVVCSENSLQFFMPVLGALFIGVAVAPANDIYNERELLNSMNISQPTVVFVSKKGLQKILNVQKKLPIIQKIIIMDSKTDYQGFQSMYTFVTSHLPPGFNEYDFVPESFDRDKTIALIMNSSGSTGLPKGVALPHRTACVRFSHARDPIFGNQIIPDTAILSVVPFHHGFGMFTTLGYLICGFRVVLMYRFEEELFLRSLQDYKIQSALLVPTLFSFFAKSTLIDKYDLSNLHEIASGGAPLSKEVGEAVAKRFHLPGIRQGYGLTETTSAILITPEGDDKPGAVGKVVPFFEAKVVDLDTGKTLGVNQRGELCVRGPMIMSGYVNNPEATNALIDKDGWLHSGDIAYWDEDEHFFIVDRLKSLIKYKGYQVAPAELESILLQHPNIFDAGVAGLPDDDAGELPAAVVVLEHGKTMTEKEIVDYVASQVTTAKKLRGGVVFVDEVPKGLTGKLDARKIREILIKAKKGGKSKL
# [2] = target: Glyceraldehyde-3-phosphate dehydrogenase (Homo sapiens, UniProt P04406)
# Glyceraldehyde-3-phosphate dehydrogenase, sequence (P04406 whole entry): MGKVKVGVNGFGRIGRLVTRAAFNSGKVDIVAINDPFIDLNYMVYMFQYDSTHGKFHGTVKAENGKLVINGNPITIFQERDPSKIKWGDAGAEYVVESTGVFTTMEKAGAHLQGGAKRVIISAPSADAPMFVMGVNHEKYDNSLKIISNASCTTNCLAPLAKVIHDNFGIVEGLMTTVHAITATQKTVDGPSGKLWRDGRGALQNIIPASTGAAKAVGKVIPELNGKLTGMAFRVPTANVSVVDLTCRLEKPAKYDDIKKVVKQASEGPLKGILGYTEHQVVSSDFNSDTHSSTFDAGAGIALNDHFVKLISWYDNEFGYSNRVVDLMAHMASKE
# HT-1080 = test: cytotoxicity in HT1080 fibrosarcoma cells, cell-based, fluorescence readout (AID 620); format: functional; details: Homo sapiens
# Jurkat = test: antigen receptor-induced NF-kB inhibitors, dose response, Jurkat, luciferase reporter, luminescence, B- and T-cell (AID 489004); format: functional, cell-based; details: Homo sapiens;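 also: NF-kB luciferase reporter Jurkat cells stimulated with PMA plus ionomycin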
# Protein RecA = target: T2, Protein RecA (Mycobacterium tuberculosis, UniProt P9WHJ3); test: Fluorescence Cell-Free Homogeneous Dose Retest to Identify Inhibitors of RecA-Intein Splicing Activity. [Related pubchem assays (depositor defined):AID2097, AID2223, AID489010, AID492950]; format: functional
# T2 sequence (P9WHJ3 whole entry): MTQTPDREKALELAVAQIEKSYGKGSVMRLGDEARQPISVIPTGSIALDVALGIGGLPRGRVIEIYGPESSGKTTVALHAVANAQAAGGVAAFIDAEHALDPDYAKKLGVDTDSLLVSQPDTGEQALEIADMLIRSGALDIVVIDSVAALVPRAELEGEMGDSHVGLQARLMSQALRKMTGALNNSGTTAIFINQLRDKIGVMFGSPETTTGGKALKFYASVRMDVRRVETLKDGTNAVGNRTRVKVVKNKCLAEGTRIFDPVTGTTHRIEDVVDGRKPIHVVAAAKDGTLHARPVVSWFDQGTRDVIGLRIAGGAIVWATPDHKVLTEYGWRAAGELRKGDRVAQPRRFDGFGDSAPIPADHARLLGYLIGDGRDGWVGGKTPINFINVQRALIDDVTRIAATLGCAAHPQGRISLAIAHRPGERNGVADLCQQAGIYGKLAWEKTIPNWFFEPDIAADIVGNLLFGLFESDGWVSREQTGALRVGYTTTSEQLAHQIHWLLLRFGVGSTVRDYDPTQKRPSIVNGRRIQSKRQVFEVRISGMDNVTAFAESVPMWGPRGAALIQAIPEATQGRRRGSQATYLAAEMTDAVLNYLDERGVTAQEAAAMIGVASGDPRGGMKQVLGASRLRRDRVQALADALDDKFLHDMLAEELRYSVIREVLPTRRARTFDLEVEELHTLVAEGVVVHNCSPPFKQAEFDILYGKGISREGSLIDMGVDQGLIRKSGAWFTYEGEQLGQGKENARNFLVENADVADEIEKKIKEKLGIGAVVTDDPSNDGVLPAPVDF
# [3] = target: T3, Sentrin-specific protease 7 (Homo sapiens, UniProt Q9BQF6); test: SENP7 protease inhibitors, SAR follow-up, biochemical, luminescence (AID 504497); format: functional
# T3 sequence (Q9BQF6 whole entry): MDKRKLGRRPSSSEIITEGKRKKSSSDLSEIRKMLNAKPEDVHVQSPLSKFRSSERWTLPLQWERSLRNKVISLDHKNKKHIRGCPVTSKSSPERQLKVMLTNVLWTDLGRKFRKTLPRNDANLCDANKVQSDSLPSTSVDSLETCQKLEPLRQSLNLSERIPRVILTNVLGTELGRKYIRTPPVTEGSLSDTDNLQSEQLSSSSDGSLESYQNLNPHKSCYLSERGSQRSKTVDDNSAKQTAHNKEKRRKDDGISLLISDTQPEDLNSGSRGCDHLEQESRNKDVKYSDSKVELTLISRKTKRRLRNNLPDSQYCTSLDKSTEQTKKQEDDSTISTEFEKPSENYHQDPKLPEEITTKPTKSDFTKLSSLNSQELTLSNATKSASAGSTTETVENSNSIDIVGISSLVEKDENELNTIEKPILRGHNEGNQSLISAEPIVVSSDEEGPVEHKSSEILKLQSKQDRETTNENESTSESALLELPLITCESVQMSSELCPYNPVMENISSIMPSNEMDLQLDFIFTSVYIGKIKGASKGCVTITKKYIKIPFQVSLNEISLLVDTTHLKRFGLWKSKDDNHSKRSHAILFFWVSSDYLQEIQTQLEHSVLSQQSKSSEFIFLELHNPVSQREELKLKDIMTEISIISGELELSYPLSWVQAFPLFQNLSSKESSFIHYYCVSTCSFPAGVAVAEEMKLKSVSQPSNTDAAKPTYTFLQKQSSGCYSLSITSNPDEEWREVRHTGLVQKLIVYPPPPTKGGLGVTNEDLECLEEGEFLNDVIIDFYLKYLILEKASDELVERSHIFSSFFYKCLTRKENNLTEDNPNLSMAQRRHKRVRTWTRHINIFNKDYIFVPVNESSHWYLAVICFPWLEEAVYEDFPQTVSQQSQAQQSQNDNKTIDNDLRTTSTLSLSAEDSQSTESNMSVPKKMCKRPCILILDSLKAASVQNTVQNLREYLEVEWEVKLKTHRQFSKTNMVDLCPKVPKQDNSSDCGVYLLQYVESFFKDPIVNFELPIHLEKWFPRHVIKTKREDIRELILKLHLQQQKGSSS
SMILES,IC50 (Leucine aminopeptidase),EC50 [1],IC50 [2],EC50 (HT-1080),IC50 (Jurkat),EC50 (Protein RecA),IC50 [3]
N#Cc1c(NC(=O)CSc2nc[nH]n2)sc2c1CCCCC2,< 1 µM (active),50.9 µM (active),> 100 µM (not active),> 50 µM (not active),< 0.16 µM (active),–,–
COc1ccc(C(N)c2nccc3cc(OC)c(OC)cc23)cc1OC (configuration not stated),–,–,–,–,–,> 380 µM (inactive),> 99 µM (inactive)
